In patent publication EP4647082A1, “PHARMACEUTICAL COMPOSITION COMPRISING A CGRP RECEPTOR ANTAGONIST FOR THE TREATMENT OF ACUTE MIGRAINE” (NUVIE BIO, Inc., priority 2024, dated 2025):
Like-named read-outs stand apart in the source and are kept apart here. Marks after values point to notes of the source that are not given here. Bridge positions count the residues as written; N and C are the ends. Square brackets hold non-standard residues; d marks the D form. Peptide text beside a SMILES is read from it. * marks the point of attachment. Phe(2-CONH2) = NC(=O)c1ccccc1C[C@H](N)C(=O)O; Orn(iPr) = CC(C)NCCC[C@H](N)C(=O)O; Oxazole2carbonyl = O=C(c1ncco1)*; 3Pal = N[C@@H](Cc1cccnc1)C(=O)O

Experiment: Phase I first-in-human study, pharmacokinetics after single ascending subcutaneous doses in healthy volunteers
Format: in vivo
Settings: for AUC(0-inf) / AUC(0-t) / CL/F / Cmax / Tmax / half-life / level at 1 h / level at 2 h / level at 3 h / level at 0.08 h / level at 0.17 h / level at 0.25 h / level at 0.33 h / level at 0.5 h / level at 0.75 h / level at 4 h / level at 6 h / level at 8 h / level at 12 h: human, plasma; for AUC(0-inf) / AUC(0-t) / CL/F / Cmax / Tmax / half-life / level at 1 h / level at 2 h / level at 3 h / level at 0.08 h / level at 0.17 h / level at 0.25 h / level at 0.33 h / level at 0.5 h / level at 0.75 h / level at 4 h / level at 6 h / level at 8 h / level at 12 h / %AUCextrap / Vz/F / λz / Plasma Concentration AXN-001: mean; for level at 1 h: nominal time 1 h; for level at 1 h / level at 2 h / level at 3 h / level at 0.08 h / level at 0.17 h / level at 0.25 h / level at 0.33 h / level at 0.5 h / level at 0.75 h / level at 4 h / level at 6 h / level at 8 h / level at 12 h: read-out: Plasma Concentration AXN-001; for level at 2 h: nominal time 2 h; for level at 3 h: nominal time 3 h; for T10nM: time to 10 nM; for T30nM: time to 30 nM; for T100nM: time to 100 nM
Method: For Phase I clinical studies, the 32 mg/mL pharmaceutical composition was dosed subcutaneously. The Phase I clinical trial was a randomised, double-blind, placebo-controlled, first-in-human study of the safety, tolerability and pharmacokinetics of AXN-001 in healthy volunteers under Protocol No. AXN-001-01 .
The pharmacokinetic objective of the clinical trial was to provide pharmacokinetic analysis of AXN-001 following single ascending subcutaneous doses of AXN-001. The study design included the following Cohorts: • Cohort 1: Dose 1 mg (2 mg/mL formulation); • Cohort 2: Dose 2 mg (4 mg/mL formulation); • Cohort 3: Dose 4 mg (8 mg/mL formulation); • Cohort 4: Dose 8 mg (16 mg/mL formulation); • Cohort 5: Dose 16 mg (32 mg/mL formulation).
Participants were administered a single dose (0.5 mL) of AXN-001 or placebo via subcutaneous (SC) injection into the abdomen. Blood samples were collected at specified time points for pharmacokinetic analysis (5,10,15,20,30,45,60 minutes; 2,3,4,6,8,12,24 hours). Individual plasma concentrations of ANX-001 were determined and used for analyses.
Pharmacokinetic (PK) parameters of AXN-001 were determined using Phoenix WinNonlin version 8.3. All concentrations below the limit of quantification (BLQ) were set to zero for the purpose of the PK analysis. All AUC determinations were made using linear trapezoidal method. The following parameters were determined: Cmax Maximum observed concentration. as read directly from the observed data. Tmax Time to maximum concentration T10nM Time to 10 nM T30nM Time to 30 nM T100nM Time to 100 nM AUC0-t Area under the concentration-time curve from time zero to the time of the last measurable concentration, calculated using linear trapezoidal rule AUC0-inf Area under the concentration-time curve from time zero to infinity, calculated using linear trapezoidal rule %AUCextrap The portion of AUC determined by extrapolation t1/2 Apparent terminal elimination half-life CL/F or CL Total apparent body clearance Vz/F or Vz Apparent volume of distribution λz Terminal elimination rate constant

## CC(C)NCCC[C@@H]1NC(=O)[C@@H](NC(=O)[C@H](Cc2ccccc2C(N)=O)NC(=O)[C@H](NC(=O)c2ncco2)C(C)C)CSSC[C@@H](C(=O)N[C@@H](Cc2cccnc2)C(N)=O)NC(=O)[C@H](Cc2ccccc2)NC(=O)[C@@H]2CCCN2C(=O)CNC(=O)[C@H](C(C)C)NC(=O)[C@H](CC(=O)O)NC1=O [AXN-001, Oxazole-2-carbonyl-D-Val-Phe(2-Cbm)-c(Cys-Orn (iPr)-Asp-Val-Gly-Pro-Phe-Cys)-3Pal-NH2] (Oxazole2carbonyl-[dV][Phe(2-CONH2)]C[Orn(iPr)]DVGPFC[3Pal]-NH2; disulfide 3-10)
1 mg cohort
  subjects who achieved plasma concentrations of 30nM: 1 of 6
2 mg cohort
  subjects who achieved plasma concentrations of 30nM: 5 of 6
4 mg cohort
  subjects who achieved 100nM plasma concentrations: 2/5
4, 8, and 16 mg cohort
  subjects who achieved plasma concentrations of 30nM: All subjects
8 and 16 mg cohorts
  subjects who achieved 100nM plasma concentrations: All subjects
All subjects at all doses (1-16 mg SC)
  time to achieve plasma concentrations of 10nM AXN-001: less than 15 minutes
Single SC dose 1 mg
  AUC(0-inf): 101 ng·h/mL
  AUC(0-t): 96.1 ng·h/mL
  CL/F: 167 mL/min
  Cmax: 39.5 ng/mL
  Tmax: 0.792 h
  half-life: 1.31 h
  level at 1 h: 35.1 ng/mL
  level at 2 h: 22.8 ng/mL
  level at 3 h: 13.7 ng/mL
  %AUCextrap: 5.37%
  Vz/F: 19.1 L
  λz: 0.535 h⁻¹
  T10nM: 12 min
Single SC dose 2 mg
  AUC(0-inf): 167 ng·h/mL
  AUC(0-t): 159 ng·h/mL
  CL/F: 210 mL/min
  Cmax: 65 ng/mL
  Tmax: 0.792 h
  half-life: 1.35 h
  level at 1 h: 60.2 ng/mL
  level at 2 h: 38.1 ng/mL
  level at 3 h: 21.3 ng/mL
  %AUCextrap: 4.98%
  Vz/F: 24.6 L
  λz: 0.528 h⁻¹
  T10nM: 9 min
Single SC dose 2 mg, nominal time 0.08 h
  level at 0.08 h: 11.3 ng/mL
Single SC dose 2 mg, nominal time 0.17 h
  level at 0.17 h: 21.6 ng/mL
Single SC dose 2 mg, nominal time 0.25 h
  level at 0.25 h: 31.5 ng/mL
Single SC dose 2 mg, nominal time 0.33 h
  level at 0.33 h: 40.4 ng/mL
Single SC dose 2 mg, nominal time 0.50 h
  level at 0.5 h: 55.7 ng/mL
Single SC dose 2 mg, nominal time 0.75 h
  level at 0.75 h: 62.6 ng/mL
Single SC dose 2 mg, nominal time 4 h
  level at 4 h: 11.4 ng/mL
Single SC dose 2 mg, nominal time 6 h
  level at 6 h: 4.79 ng/mL
Single SC dose 2 mg, nominal time 8 h
  level at 8 h: 0.713 ng/mL
Single SC dose 4 mg
  AUC(0-inf): 343 ng·h/mL
  AUC(0-t): 337 ng·h/mL
  CL/F: 197 mL/min
  Cmax: 133 ng/mL
  Tmax: 0.7 h
  half-life: 1.36 h
  level at 1 h: 134 ng/mL
  level at 2 h: 82.5 ng/mL
  level at 3 h: 44.7 ng/mL
  %AUCextrap: 1.82%
  Vz/F: 23.3 L
  λz: 0.517 h⁻¹
  T10nM: 6 min
  T30nM: 11 min
Single SC dose 4 mg, nominal time 0.08 h
  level at 0.08 h: 9.6 ng/mL
Single SC dose 4 mg, nominal time 0.17 h
  level at 0.17 h: 35.3 ng/mL
Single SC dose 4 mg, nominal time 0.25 h
  level at 0.25 h: 71.4 ng/mL
Single SC dose 4 mg, nominal time 0.33 h
  level at 0.33 h: 87.8 ng/mL
Single SC dose 4 mg, nominal time 0.50 h
  level at 0.5 h: 115 ng/mL
Single SC dose 4 mg, nominal time 0.75 h
  level at 0.75 h: 123 ng/mL
Single SC dose 4 mg, nominal time 4 h
  level at 4 h: 23.5 ng/mL
Single SC dose 4 mg, nominal time 6 h
  level at 6 h: 8.25 ng/mL
Single SC dose 4 mg, nominal time 8 h
  level at 8 h: 3.09 ng/mL
Single SC dose 8 mg
  AUC(0-inf): 594 ng·h/mL
  AUC(0-t): 585 ng·h/mL
  CL/F: 225 mL/min
  Cmax: 244 ng/mL
  Tmax: 0.75 h
  half-life: 1.47 h
  level at 1 h: 226 ng/mL
  level at 2 h: 136 ng/mL
  level at 3 h: 72 ng/mL
  %AUCextrap: 1.58%
  Vz/F: 28.7 L
  λz: 0.481 h⁻¹
  T10nM: 3 min
  T30nM: 7 min
  T100nM: 21 min
Single SC dose 8 mg, nominal time 0.08 h
  level at 0.08 h: 32.1 ng/mL
Single SC dose 8 mg, nominal time 0.17 h
  level at 0.17 h: 84 ng/mL
Single SC dose 8 mg, nominal time 0.25 h
  level at 0.25 h: 118 ng/mL
Single SC dose 8 mg, nominal time 0.33 h
  level at 0.33 h: 144 ng/mL
Single SC dose 8 mg, nominal time 0.50 h
  level at 0.5 h: 199 ng/mL
Single SC dose 8 mg, nominal time 0.75 h
  level at 0.75 h: 240 ng/mL
Single SC dose 8 mg, nominal time 4 h
  level at 4 h: 38.7 ng/mL
Single SC dose 8 mg, nominal time 6 h
  level at 6 h: 13.9 ng/mL
Single SC dose 8 mg, nominal time 8 h
  level at 8 h: 5.8 ng/mL
Single SC dose 8 mg, nominal time 12 h
  level at 12 h: 0.38 ng/mL
Single SC dose 16 mg
  AUC(0-inf): 1250 ng·h/mL
  AUC(0-t): 1230 ng·h/mL
  CL/F: 222 mL/min
  Cmax: 381 ng/mL
  Tmax: 0.958 h
  half-life: 2.8 h
  level at 1 h: 380 ng/mL
  level at 2 h: 277 ng/mL
  level at 3 h: 170 ng/mL
  %AUCextrap: 1.51%
  Vz/F: 55.3 L
  λz: 0.292 h⁻¹
  T10nM: 3 min
  T30nM: 7 min
  T100nM: 17 min
Single SC dose 16 mg, nominal time 0.08 h
  level at 0.08 h: 27.4 ng/mL
Single SC dose 16 mg, nominal time 0.17 h
  level at 0.17 h: 83.4 ng/mL
Single SC dose 16 mg, nominal time 0.25 h
  level at 0.25 h: 139 ng/mL
Single SC dose 16 mg, nominal time 0.33 h
  level at 0.33 h: 183 ng/mL
Single SC dose 16 mg, nominal time 0.50 h
  level at 0.5 h: 294 ng/mL
Single SC dose 16 mg, nominal time 0.75 h
  level at 0.75 h: 355 ng/mL
Single SC dose 16 mg, nominal time 4 h
  level at 4 h: 96.8 ng/mL
Single SC dose 16 mg, nominal time 6 h
  level at 6 h: 44 ng/mL
Single SC dose 16 mg, nominal time 8 h
  level at 8 h: 23.7 ng/mL
Single SC dose 16 mg, nominal time 12 h
  level at 12 h: 9.2 ng/mL
Single SC dose 1 mg, nominal time 0.08 h
  Plasma Concentration AXN-001: 4.96 ng/mL
Single SC dose 1 mg, nominal time 0.17 h
  Plasma Concentration AXN-001: 12.8 ng/mL
Single SC dose 1 mg, nominal time 0.25 h
  Plasma Concentration AXN-001: 17.9 ng/mL
Single SC dose 1 mg, nominal time 0.33 h
  Plasma Concentration AXN-001: 28.5 ng/mL
Single SC dose 1 mg, nominal time 0.50 h
  Plasma Concentration AXN-001: 34.8 ng/mL
Single SC dose 1 mg, nominal time 0.75 h
  Plasma Concentration AXN-001: 39.3 ng/mL
Single SC dose 1 mg, nominal time 4 h
  Plasma Concentration AXN-001: 7.47 ng/mL
Single SC dose 1 mg, nominal time 6 h
  Plasma Concentration AXN-001: 2.8 ng/mL
Single SC dose 1 mg, nominal time 8 h
  Plasma Concentration AXN-001: 0 ng/mL
Single SC dose 1 mg, nominal time 12 h
  Plasma Concentration AXN-001: 0 ng/mL
Single SC dose 1 mg, marked *, 1 of 6 subjects reached 30nM
  T30nM: 19* min
Single SC dose 2 mg, nominal time 12 h
  Plasma Concentration AXN-001: 0 ng/mL
Single SC dose 2 mg, marked *, 5 of 6 subjects reached 30nM
  T30nM: 21* min
Single SC dose 4 mg, marked *, 2/5 of cohort reached 100nM
  T100nM: 25* min
Within 30 minutes, compared with olcegepant, zavegepant, rimegepant and ubrogepant, consistent up to 120 minutes
  free plasma concentration (Figure 5): much higher increase in free plasma concentration
